Data set [1] addresses T1, NET (Rattus norvegicus, UniProt Q63380).
T1 construct: Cortex from rat brain was collected and homogenised; from tissue; host or cells: rat brain cortex homogenate/membranes
Nature of the data set: In vitro determination of NET reuptake inhibition ([3H]Nixosetine binding, rat brain cortex membranes). The protocol: In vitro Determination of NET Reuptake Inhibition
Cortex from rat brain was collected and homogenised using an Ultra-Turrax T25 and a Dual homogeniser in ice-cold homogenising buffer containing Tris, NaCl and KCl (50 mM, 120 mM and 5 mM, respectively, pH 7.4) prior to dilution to an appropriate protein concentration optimised for specific and non-specific binding. […] Membrane-bound activity was detected by filtration through a Packard Filtermate harvester onto GF/B Unifilterplates, washed with ice-cold Tris-HCl buffer, containing NaCl and KCl (50 mM, 120 mM and 4 mM; pH 7.4; 6×0.5 ml). Filters were allowed to dry for 24 h before adding scintillation fluid. Scintillation fluid was allowed to saturate filters for 24 h before counting in a Topcount scintillation counter. Percentage specific bound and competition binding curves were calculated using S-Plus software (Insightful).

Data set [2] deals with T2, human Dopamine D2L receptor (Homo sapiens, UniProt P14416).
T2 construct: expressed in transfected cells; host or cells: CHO cells
T2 sequence (P14416 whole entry): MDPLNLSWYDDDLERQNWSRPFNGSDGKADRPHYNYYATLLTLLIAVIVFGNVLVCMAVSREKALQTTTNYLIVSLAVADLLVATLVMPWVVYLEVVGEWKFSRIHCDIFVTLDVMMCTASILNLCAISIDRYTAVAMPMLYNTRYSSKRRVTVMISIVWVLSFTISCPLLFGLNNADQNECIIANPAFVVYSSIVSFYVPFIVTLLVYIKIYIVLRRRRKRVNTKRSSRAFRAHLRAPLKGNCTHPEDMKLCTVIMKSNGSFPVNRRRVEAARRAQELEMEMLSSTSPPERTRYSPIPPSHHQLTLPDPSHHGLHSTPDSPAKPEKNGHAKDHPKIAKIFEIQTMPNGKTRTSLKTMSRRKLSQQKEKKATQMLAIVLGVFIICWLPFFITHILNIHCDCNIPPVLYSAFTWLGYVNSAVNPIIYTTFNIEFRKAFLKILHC
Nature of the data set: In vitro binding affinity for human D2L receptor ([3H]Spiperone). As to conditions: human D2L receptor-transfected CHO cell membranes. As to the method: In vitro Binding Affinity for Human D2L Receptor
Frozen membranes of human Dopamine D2L receptor-transfected CHO cells were thawed, briefly homogenised using an Ultra-Turrax T25 homogeniser and diluted in Tris-HCl assay buffer containing NaCl, CaCl2, MgCl2, KCl (50, 120, 2, 1, and 5 mM respectively, adjusted to pH 7.7 with HCl) to an appropriate protein concentration optimised for specific and non-specific binding. Radioligand [^3H]Spiperone (NEN, specific activity ˜70 Ci/mmol) was diluted in assay buffer at a concentration of 2 nmol/L. Prepared radioligand (50 μl), along with 50 μl of either the 10% DMSO control, Butaclamol (10^−6 mol/l final concentration), or compound of interest, was then incubated (30 min, 37° C.) with 400 μl of the prepared membrane solution. Membrane-bound activity was filtered through a Packard Filtermate harvester onto GF/B Unifilterplates and washed with ice-cold Tris-HCl buffer (50 mM; pH 7.7; 6×0.5 ml). Filters were allowed to dry before adding scintillation fluid and counting in a Topcount scintillation counter. Percentage specific bound and competition binding curves were calculated using S-Plus software (Insightful).

The target of data set [3] is T3, human cloned 5-HT2A receptor, expressed in L929 cells (Homo sapiens, UniProt P28223).
T3 construct: expressed in transfected cells; host or cells: L929 cells
T3 sequence (P28223 whole entry): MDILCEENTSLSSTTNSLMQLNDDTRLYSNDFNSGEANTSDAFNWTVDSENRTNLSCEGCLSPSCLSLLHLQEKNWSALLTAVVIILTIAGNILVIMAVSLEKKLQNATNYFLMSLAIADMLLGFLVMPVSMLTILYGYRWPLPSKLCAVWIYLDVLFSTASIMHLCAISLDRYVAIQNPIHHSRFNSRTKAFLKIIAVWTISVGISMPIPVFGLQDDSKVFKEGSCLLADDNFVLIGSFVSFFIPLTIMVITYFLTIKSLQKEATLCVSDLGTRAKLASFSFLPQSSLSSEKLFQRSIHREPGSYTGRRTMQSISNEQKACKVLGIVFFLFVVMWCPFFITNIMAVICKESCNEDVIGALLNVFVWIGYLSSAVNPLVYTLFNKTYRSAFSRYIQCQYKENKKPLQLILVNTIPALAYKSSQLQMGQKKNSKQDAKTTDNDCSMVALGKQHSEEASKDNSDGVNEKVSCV
Nature of the data set: In vitro radioligand binding affinity for 5-HT2A receptor ([125I]R91150). To be noted: read-out: h-5HT2A (converted). As to the method: (§1) In vitro Binding Affinity for 5-HT2A and 5-HT2C Receptors
The interaction of the compounds of Formula (I) with 5-HT2A and 5-HT2C receptors was assessed in in vitro radioligand binding experiments. In general, a low concentration of a radioligand with a high binding affinity for the receptor is incubated with a sample of a tissue preparation enriched in a particular receptor (1 to 5 mg tissue) in a buffered medium (0.2 to 5 ml). During the incubation, the radioligands bind to the receptor. When equilibrium of binding is reached, the receptor bound radioactivity is separated from the non-bound radioactivity, and the receptor bound activity is counted. The interaction of the test compounds with the receptors is assessed in competition binding experiments. Various concentrations of the test compound are added to the incubation mixture containing the tissue preparation and the radioligand. Binding of the radioligand will be inhibited by the test compound in proportion to its binding affinity and its concentration. The affinities of the compounds for the 5-HT2 receptors were measured by means of radioligand binding studies conducted with: (a) human cloned 5-HT2A receptor, expressed in L929 cells using [^125I]R91150 as radioligand and (b) human cloned 5-HT2C receptor, expressed in CHO cells using [^3H]mesulergine as radioligand.

For data set [4], the target named is T4, human cloned 5-HT2C receptor, expressed in CHO cells (Homo sapiens, UniProt P28335).
T4 construct: expressed in transfected cells; host or cells: CHO cells
T4 sequence (P28335 33-458): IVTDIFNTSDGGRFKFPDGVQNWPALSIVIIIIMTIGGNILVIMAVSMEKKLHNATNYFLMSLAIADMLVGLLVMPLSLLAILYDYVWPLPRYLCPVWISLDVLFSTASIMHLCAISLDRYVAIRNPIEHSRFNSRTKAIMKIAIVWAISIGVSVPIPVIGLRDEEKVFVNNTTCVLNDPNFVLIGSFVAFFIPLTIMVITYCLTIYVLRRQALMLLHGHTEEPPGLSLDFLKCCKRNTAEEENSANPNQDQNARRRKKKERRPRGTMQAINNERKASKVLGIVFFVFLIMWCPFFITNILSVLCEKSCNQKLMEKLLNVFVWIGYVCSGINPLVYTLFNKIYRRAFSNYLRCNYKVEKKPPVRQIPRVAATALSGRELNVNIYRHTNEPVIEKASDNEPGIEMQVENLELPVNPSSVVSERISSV
Description: In vitro radioligand binding affinity for 5-HT2C receptor ([3H]mesulergine). The protocol:
as §1
The interaction of the compounds of Formula (I) with 5-HT2A and 5-HT2C receptors was assessed in in vitro radioligand binding experiments. […] During the incubation, the radioligands bind to the receptor. When equilibrium of binding is reached, the receptor bound radioactivity is separated from the non-bound radioactivity, and the receptor bound activity is counted. The interaction of the test compounds with the receptors is assessed in competition binding experiments. Various concentrations of the test compound are added to the incubation mixture containing the tissue preparation and the radioligand. Binding of the radioligand will be inhibited by the test compound in proportion to its binding affinity and its concentration.

Consider 7 compounds from patent US7799785B2, “Substituted tetracyclic tetahydrofuran, pyrrolidine and tetrahydrothiophene derivatives” (Janssen Pharmaceutica NV, priority 2004, dated 2010).

Bounds are passed on as bounds.

T1 sequence (Q63380 1-617): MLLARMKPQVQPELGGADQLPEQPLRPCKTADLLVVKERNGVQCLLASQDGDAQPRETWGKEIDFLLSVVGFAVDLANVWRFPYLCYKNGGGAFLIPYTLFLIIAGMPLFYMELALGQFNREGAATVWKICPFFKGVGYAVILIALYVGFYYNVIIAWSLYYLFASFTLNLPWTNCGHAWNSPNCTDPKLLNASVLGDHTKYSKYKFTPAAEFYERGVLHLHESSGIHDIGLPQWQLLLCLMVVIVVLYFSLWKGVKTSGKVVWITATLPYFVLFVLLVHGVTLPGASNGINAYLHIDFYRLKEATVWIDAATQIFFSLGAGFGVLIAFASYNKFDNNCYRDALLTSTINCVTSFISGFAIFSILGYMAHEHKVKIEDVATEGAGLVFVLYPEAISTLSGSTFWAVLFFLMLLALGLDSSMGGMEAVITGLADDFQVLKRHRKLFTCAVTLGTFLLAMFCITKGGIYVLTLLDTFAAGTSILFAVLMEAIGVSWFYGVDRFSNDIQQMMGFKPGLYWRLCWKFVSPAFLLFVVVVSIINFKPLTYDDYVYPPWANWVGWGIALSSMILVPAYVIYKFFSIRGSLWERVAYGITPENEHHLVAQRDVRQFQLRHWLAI

Take `Fc1ccc2c(c1)[C@@H]1[C@H](C[C@@H]3CNC(=S)N31)c1ccccc1C2` [compound 8, (4aS,13bR,14aR)-6-fluoro-1,4a,9,13b,14,14a-hexahydrodibenzo[3′,4′:6′,7′]-cyclohepta[1′,2′:4,5]pyrrolo[1,2-c]imidazole-3(2H)-thione]: the melting point was 150 to 151 °C. The “NET Reuptake Inhibition” value in data set [1] was 5.66.

Take `CN(C)C[C@H]1C[C@@H]2c3ccccc3Cc3ccc(F)cc3[C@H]2N1C=O` [36c, (2R,3aR,12bS)-2-[(dimethylamino)methyl]-11-fluoro-3,3a,8,12b-tetrahydrodibenzo[3,4:6,7]cyclohepta[1,2-b]pyrrole-1(2H)-carbaldehyde]: the IC50 in data set [2] is 4900 nM; in data set [1] it was 224 nM; in data set [3], 550 nM; in data set [4], 77.6 nM.

`N[C@@H]1CO[C@H]2c3cc(F)ccc3Cc3ccccc3[C@H]2C1` [compound 30, (3S,4aR,13bR)-12-fluoro-2,3,4,4a,9,13b-hexahydrodibenzo[3,4:6,7]cyclohepta-[1,2-b]pyran-3-amine]: the melting point lay within 74 to 76 °C. Besides, the IC50 in data set [1] is 302 nM.

Consider `CN[C@@H]1CO[C@@H]2c3cc(F)ccc3Cc3ccccc3[C@H]2C1` (relative stereo) [compound 35, (3S *,4aR*,13bS*)-12-fluoro-N-methyl-2,3,4,4a,9,13b-hexahydrodibenzo[3,4:6,7]-cyclohepta[1,2-b]pyran-3-amine], for which the IC50 in data set [2], in data set [1] and in data set [3] was above 1000 nM each time.

As for `COC(=O)N1[C@@H](CN(C)C)C[C@@H]2c3ccccc3Cc3ccc(F)cc3[C@H]21` [36a, Methyl(2R,3aR,12bS)-2-[(dimethylamino)methyl]-11-fluoro-3,3a,8,12b-tetrahydro-dibenzo[3,4:6,7]cyclohepta[1,2-b]pyrrole-1(2H)-carboxylate], the IC50 is above 1000 nM in data set [2], 692 nM in data set [1], above 1000 nM in data set [3] and above 1000 nM in data set [4].

Regarding `CN(CCO)C[C@H]1C[C@@H]2c3ccccc3Cc3ccc(F)cc3[C@H]2N1` [43b, 2-[{[(2R,3aR,12bS)-11-fluoro-1,2,3,3a,8,12b-hexahydrodibenzo[3,4:6,7]-cyclohepta[1,2-b]pyrrol-2-yl]methyl}(methyl)amino]-ethanol], the IC50 in data set [2] was 437 nM; in data set [1], 15.8 nM; in data set [3], 67.6 nM; in data set [4] it was 89.1 nM.

As to `CN1CC(=O)N2[C@H](C[C@@H]3c4ccccc4Cc4ccc(F)cc4[C@H]32)C1` [compound 13, (5aS,14bR,15aR)-7-fluoro-2-methyl-1,2,3,5a,10,14b,15,15a-octahydro-4H-dibenzo-[3′,4′:6′,7′]cyclohepta[1′,2′:4,5]pyrrolo[1,2-a]pyrazin-4-one], the melting point is 139 to 141 °C. Further, the “NET Reuptake Inhibition” value in data set [1] is on record as below 5.
